Some test systems named below: SK-MEL-5; OVCAR-5; A549; EKVX; LXFL 529; OVCAR-4; CCRF-CEM; COLO 205; NCI-H522; SF-268; OVCAR-8; CAKI-1; HCC 2998; MDA-N; MCF7; MDA-MB-231; NCI/ADR-RES; MDA-MB-435; PC-3; SR.
What all share (assay): DTP human tumour cell line panel, 48 h

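Following 48 hours of exposure in 96-well plates, responses at five concentrations were used to interpolate endpoints linearly. Abbreviation: GI50, concentration required for 50% inhibition of growth.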 Calls of active or inactive are those of the source. Cut-off read from the data, not from the text of the source: active = GI50 up to about 1.1 µM and inactive = higher. Where only a bound is given, the exact number is not on record here.

As to `COc1ccc(C=O)c(NC(=O)C(C)C)c1`, the GI50 is > 10 µM (inactive) with SK-MEL-5; > 100 µM (inactive) in the test with OVCAR-5; 27.2 µM (inactive) in the test on A549; 31.6 µM (inactive) with EKVX; 44.9 µM (inactive) in the test on LXFL 529; 27 µM (inactive) with OVCAR-4. Also, the GI50 in the test with CCRF-CEM is > 10 µM (inactive); in the test with COLO 205 it was 18.2 µM (inactive); in the test on NCI-H522, 15.9 µM (inactive); with SF-268 it was 36.2 µM (inactive); in the test with OVCAR-8 it was 30.8 µM (inactive).

Take `O=c1cccccc1NCCCCCCNc1cccccc1=O`: the GI50 in the test with CAKI-1, with SK-MEL-5, with OVCAR-5, in the test with A549, in the test on EKVX and with LXFL 529 was > 100 µM (inactive) in each case. For the same molecule, the GI50 with OVCAR-4, in the test on HCC 2998, in the test with CCRF-CEM, in the test on COLO 205, in the test with NCI-H522 and with SF-268 was > 100 µM (inactive) in each case. Besides, the GI50 in the test on OVCAR-8 was > 100 µM (inactive).

As to `CC1S(=O)(=O)OCCOS1(=O)=O`, the GI50 in the test with CAKI-1 is 53.3 µM (inactive); with SK-MEL-5, 50.1 µM (inactive); in the test with OVCAR-5, > 100 µM (inactive); in the test with A549, > 95.5 µM (inactive); in the test with EKVX, > 100 µM (inactive); in the test with LXFL 529, > 100 µM (inactive). For the same molecule, the GI50 in the test with OVCAR-4 was > 100 µM (inactive); in the test on HCC 2998, > 100 µM (inactive); in the test with CCRF-CEM, 50 µM (inactive); in the test with COLO 205 it was > 100 µM (inactive); in the test on NCI-H522, > 78 µM (inactive); in the test with SF-268, 32.1 µM (inactive). Further, in the test with OVCAR-8, the GI50 was > 100 µM (inactive).

As to `C[C@]12CCC(=O)CC1CCCC2=O` (stereo partly specified), the GI50 in the test with CAKI-1, in the test on SK-MEL-5, in the test on A549, in the test on EKVX, with LXFL 529 and with OVCAR-4 was > 100 µM (inactive) in each case. In addition, the GI50 with HCC 2998, in the test on CCRF-CEM, in the test with COLO 205, in the test on NCI-H522, in the test on SF-268 and with OVCAR-8 was > 100 µM (inactive) in each case.

Regarding `N#Cc1c(NC(=O)C(F)(F)F)sc2c3c(=O)c4ccccc4c(=O)c=3oc3ccccc3c12`, the GI50 in the test with MDA-N was 18.3 µM (inactive); in the test on MCF7, 20.2 µM (inactive); with CAKI-1 it was 15.4 µM (inactive); with MDA-MB-231, 24.3 µM (inactive); in the test with SK-MEL-5 it was 11.3 µM (inactive); in the test with OVCAR-5 it was 30.7 µM (inactive). Further, the GI50 was 24.8 µM (inactive) in the test on NCI/ADR-RES; 19 µM (inactive) with A549; 24.6 µM (inactive) in the test with EKVX; 14.7 µM (inactive) in the test with OVCAR-4; 13.9 µM (inactive) in the test on HCC 2998; 4.24 µM (inactive) in the test on CCRF-CEM. Further, the GI50 in the test on COLO 205 was 14.7 µM (inactive); in the test with MDA-MB-435, 17.1 µM (inactive); in the test on NCI-H522, 7.89 µM (inactive); in the test on SF-268 it was 7.98 µM (inactive); in the test with OVCAR-8 it was 15.7 µM (inactive); with PC-3, 8.93 µM (inactive). For the same molecule, the GI50 in the test with SR is 3.28 µM (inactive).

As for `O=c1oc2ccccc2cc1-c1cn2ccccc2n1`, the GI50 is 4.88 µM (inactive) in the test on MDA-N; 13.8 µM (inactive) in the test with MCF7; 5.75 µM (inactive) in the test with CAKI-1; 6.4 µM (inactive) with MDA-MB-231; 6.18 µM (inactive) with SK-MEL-5; 21.7 µM (inactive) in the test on OVCAR-5. For the same molecule, the GI50 in the test with NCI/ADR-RES is 3.15 µM (inactive); in the test on A549, 5.48 µM (inactive); with EKVX it was 11.4 µM (inactive); in the test with OVCAR-4, 4.08 µM (inactive); in the test on HCC 2998, 20.1 µM (inactive); in the test with CCRF-CEM, 5.18 µM (inactive). In addition, the GI50 is 30.1 µM (inactive) with COLO 205; 4.1 µM (inactive) with MDA-MB-435; 3.31 µM (inactive) with NCI-H522; 2.96 µM (inactive) in the test with SF-268; 3.21 µM (inactive) in the test on OVCAR-8; 4.26 µM (inactive) in the test on PC-3. Moreover, the GI50 in the test with SR is 3.85 µM (inactive).

Consider `Cc1ccc(S(=O)(=O)N/N=C/C(=C/c2ccc(Cl)cc2)CC(/C=N/NS(=O)(=O)c2ccc(C)cc2)=C\c2ccc(Cl)cc2)cc1`, for which the GI50 with MDA-N was 4.45 µM (inactive); with MCF7, 2.86 µM (inactive); in the test with CAKI-1, 5.37 µM (inactive); in the test with MDA-MB-231 it was 10.2 µM (inactive); with SK-MEL-5, 4.03 µM (inactive); in the test on OVCAR-5 it was 15.3 µM (inactive). The GI50 with NCI/ADR-RES was 7.36 µM (inactive); in the test with A549, 17.1 µM (inactive); in the test on EKVX, 13 µM (inactive); in the test with OVCAR-4 it was 5.42 µM (inactive); in the test with HCC 2998 it was 3.21 µM (inactive); with CCRF-CEM, 2.98 µM (inactive). The GI50 in the test on COLO 205 was 5 µM (inactive); with MDA-MB-435, 3.72 µM (inactive); in the test on NCI-H522, 4.03 µM (inactive); in the test on SF-268, 5.06 µM (inactive); with OVCAR-8, 2.63 µM (inactive); with PC-3, 4.02 µM (inactive). In addition, the GI50 in the test on SR was 2.61 µM (inactive).

Take `COC(=O)C(Cc1c[nH]c2ccccc12)NC1=Nc2ccncc2S(=O)(=O)N1c1ccccc1` (stereo unspecified): the GI50 in the test with MDA-N was 45.1 µM (inactive); with MCF7 it was 33.2 µM (inactive); in the test on CAKI-1, 39.4 µM (inactive); in the test with MDA-MB-231 it was 52.1 µM (inactive); in the test with SK-MEL-5 it was 16 µM (inactive); in the test on OVCAR-5, 41 µM (inactive). In addition, the GI50 in the test with NCI/ADR-RES is 33 µM (inactive); in the test with A549 it was 59 µM (inactive); in the test on EKVX, > 100 µM (inactive); in the test on OVCAR-4, 24.7 µM (inactive); with HCC 2998, 27.5 µM (inactive); in the test with CCRF-CEM, 14.1 µM (inactive). Also, the GI50 in the test with COLO 205 was 17.6 µM (inactive); with MDA-MB-435, 32.1 µM (inactive); with NCI-H522, 28 µM (inactive); with SF-268, 38.9 µM (inactive); with OVCAR-8 it was 34 µM (inactive); in the test on PC-3, 29.1 µM (inactive). Moreover, the GI50 with SR was 20.2 µM (inactive).

Consider `Cc1nc2ccccc2n1Cc1ccc(NC(=S)Nc2ccccc2)cc1`, for which the GI50 is 31 µM (inactive) in the test on MDA-N; 27.4 µM (inactive) with MCF7; 77.4 µM (inactive) in the test on CAKI-1; 36.4 µM (inactive) with MDA-MB-231; 12.3 µM (inactive) in the test on SK-MEL-5; 37.1 µM (inactive) in the test on OVCAR-5. Besides, the GI50 in the test on NCI/ADR-RES was 72.3 µM (inactive); with A549, 80 µM (inactive); with EKVX, 21.1 µM (inactive); with OVCAR-4, 28.6 µM (inactive); with HCC 2998, 92 µM (inactive); in the test with CCRF-CEM, 36.8 µM (inactive). For the same molecule, the GI50 is 34.8 µM (inactive) in the test with COLO 205; 46.9 µM (inactive) in the test with MDA-MB-435; 21.9 µM (inactive) in the test on NCI-H522; 91 µM (inactive) in the test on SF-268; 60.1 µM (inactive) in the test on OVCAR-8; 75.7 µM (inactive) with PC-3. The GI50 with SR was 20.2 µM (inactive).

With `O=C(N/N=C\c1ccc2ccccc2c1)Nc1ccc([N+](=O)[O-])cc1`, the GI50 in the test on MDA-N was 23.5 µM (inactive); in the test on MCF7, 22.3 µM (inactive); in the test on CAKI-1, 45 µM (inactive); in the test on MDA-MB-231 it was 32.2 µM (inactive); in the test with SK-MEL-5 it was 22.7 µM (inactive); in the test with OVCAR-5, 22.5 µM (inactive). Also, the GI50 in the test with NCI/ADR-RES was 20.9 µM (inactive); with A549, 26.4 µM (inactive); with EKVX it was 47.3 µM (inactive); in the test with OVCAR-4, 22.1 µM (inactive); in the test with HCC 2998, 22.1 µM (inactive); in the test with CCRF-CEM, 28.6 µM (inactive). Besides, the GI50 with COLO 205 was 21.6 µM (inactive); with MDA-MB-435, 31.1 µM (inactive); in the test with NCI-H522, 16.3 µM (inactive); in the test on SF-268 it was 27 µM (inactive); in the test with OVCAR-8, 23 µM (inactive); in the test with PC-3, 17.2 µM (inactive). The GI50 in the test on SR was 43 µM (inactive).

Take `COc1ccc(-c2cc(O)c3cc(OC)c(OC)cc3n2)cc1OC`: the GI50 in the test with MDA-N, with MCF7, in the test on CAKI-1, in the test with MDA-MB-231, in the test on SK-MEL-5 and in the test on OVCAR-5 was > 100 µM (inactive) each time. Also, the GI50 in the test on NCI/ADR-RES, in the test on A549, with EKVX, in the test with OVCAR-4, in the test with HCC 2998 and in the test with CCRF-CEM was > 100 µM (inactive) throughout. For the same molecule, the GI50 in the test on COLO 205, in the test on MDA-MB-435, with NCI-H522, with SF-268, in the test on OVCAR-8 and in the test on PC-3 was > 100 µM (inactive) throughout. Further, the GI50 in the test on SR was > 100 µM (inactive).

For the molecule `CC(=O)O[C@H]1[C@@H](N2CCN(C)CC2)C[C@H]2[C@@H]3CC=C4C[C@@H](N5CCCC5)CC[C@]4(C)[C@H]3CC[C@@]21C`, the GI50 in the test with MDA-N was 26.1 µM (inactive); in the test on MCF7, > 100 µM (inactive); with CAKI-1, 49.4 µM (inactive); with MDA-MB-231 it was 63 µM (inactive); in the test on SK-MEL-5, 25.9 µM (inactive); in the test on OVCAR-5 it was 34.5 µM (inactive). Further, the GI50 in the test with NCI/ADR-RES is 98.4 µM (inactive); in the test with A549 it was 37.7 µM (inactive); in the test on EKVX, 74.5 µM (inactive); with OVCAR-4, > 100 µM (inactive); in the test on HCC 2998, 17.2 µM (inactive); in the test with CCRF-CEM it was 30.4 µM (inactive). In addition, the GI50 in the test with COLO 205 is 3.85 µM (inactive); with MDA-MB-435 it was 24.6 µM (inactive); with NCI-H522, 23.4 µM (inactive); in the test on SF-268 it was 47.6 µM (inactive); in the test with OVCAR-8, 85.1 µM (inactive); in the test with PC-3 it was 40.9 µM (inactive). In addition, the GI50 with SR was < 0.01 µM (active).

The record behind these values is ChEMBL document CHEMBL1201862, “PubChem BioAssay data set” (2004).
